{
  "source": "patent US5304549A",
  "about": "“Amino acid derivatives” (Hoffmann-La Roche Inc., priority 1991, dated 1994)",
  "note": "Structures can show the parent of a compound that is named as a salt.",
  "data": [
    {"target": "T1, collagenase obtained from a culture of human synovial fibroblasts (Homo sapiens, UniProt P03956)", "T1 construct": "endogenous in cells; host or cells: human synovial fibroblasts in culture (conditioned medium)", "T1 sequence (P03956 100-469)": "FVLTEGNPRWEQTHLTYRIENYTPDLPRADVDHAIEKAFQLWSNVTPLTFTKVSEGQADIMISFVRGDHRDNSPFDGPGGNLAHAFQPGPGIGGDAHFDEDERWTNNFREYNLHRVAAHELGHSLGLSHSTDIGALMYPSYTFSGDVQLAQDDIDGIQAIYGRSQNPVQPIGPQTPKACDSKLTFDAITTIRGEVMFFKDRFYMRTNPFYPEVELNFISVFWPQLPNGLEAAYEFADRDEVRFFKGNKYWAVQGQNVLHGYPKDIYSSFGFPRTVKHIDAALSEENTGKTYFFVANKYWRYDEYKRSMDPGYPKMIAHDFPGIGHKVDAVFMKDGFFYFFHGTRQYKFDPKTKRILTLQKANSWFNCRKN", "assay": "in vitro collagenase inhibiting activity (14C-acetylated collagen type I from rat tail tendons as substrate, microtitre plate assay)", "format": "biochemical", "conditions": "human synovial fibroblast collagenase, trypsin-activated; 14C-acetylated rat tail tendon collagen type I", "units": {"IC50": "nM"}, "values": [
      {"molecule": "CNC(=O)[C@@H](NC(=O)[C@H](CC(C)C)C(CCCC(=O)OC)C(=O)NO)C(C)(C)C", "note": "(single isomer, unassigned) [Compound F, N^2-[2(R)-[1(R or S)-(hydroxycarbamoyl)-4-(methoxycarbonyl)butyl]-4-methylvaleryl]-N^1,3-dimethyl-L-valinamide]", "IC50": 0.9},
      {"molecule": "CNC(=O)[C@@H](NC(=O)[C@@H](CC(=O)NO)CC(C)C)C(C)(C)C", "note": "[Compound A, N^2-[2(R)-[Hydroxycarbamoylmethyl]-4-methylvaleryl]-N^1,3-dimethyl-L-valinamide]", "IC50": 4},
      {"molecule": "CNC(=O)[C@@H](NC(=O)C(CC(C)C)CP(=O)(O)CN1C(=O)c2cccc3c(O)c(Br)cc(c23)C1=O)C(C)(C)C", "note": "(single isomer, unassigned) [Compound B, N^2-[2(R or S)-[[[(5-bromo-2,3-dihydro-6-hydroxy-1,3-dioxo-1H-benz[d,e]isoquinol-2-yl)methyl](hydroxy)phosphinyl]methyl]-4-methylvaleryl]-N^1,3-dimethyl-L-valinamide]", "IC50": 4},
      {"molecule": "CNC(=O)[C@@H](NC(=O)C(CC(C)C)[C@H](C)C(=O)NO)C(C)(C)C", "note": "(single isomer, unassigned; isomer 2) [Compound D, N^2-[2(R or S)-[1(S)-(hydroxycarbamoyl)ethyl]-4-methylvaleryl]-N^1,3-dimethyl-L-valinamide (isomer 2)]", "IC50": 2},
      {"molecule": "CNC(=O)[C@@H](NC(=O)[C@H](CC(C)C)C(CN1C(=O)CCC1=O)C(=O)NO)C(C)(C)C", "note": "(single isomer, unassigned) [Compound H, N^2-[2(R)-[1(R or S)-(hydroxycarbamoyl)-2-succinimidoethyl]-4-methylvaleryl]-N^1,3-dimethyl-L-valinamide]", "IC50": 0.5},
      {"molecule": "CNC(=O)C(NC(=O)C(CC(C)C)C(N)P(=O)(O)CN1C(=O)c2cccc3c(O)c(Br)cc(c23)C1=O)C(C)(C)C", "note": "(single isomer, unassigned) [Compound C, N^2-[2-(R or S)-[[(R)-(amino)-[(5-bromo-2,3-dihydro-6-hydroxy-1,3-dioxo-1H-benz[d,e]isoquinol-2-yl)methyl](hydroxy)phosphinyl]methyl]-4-methylvaleryl]-N^1,3-dimethyl-L-valinamide hydrobromide]", "IC50": 9},
      {"molecule": "CNC(=O)[C@@H](NC(=O)[C@H](CC(C)C)C(CCCc1ccccc1)C(=O)NO)C(C)(C)C", "note": "(single isomer, unassigned) [Compound G, N^2-[2(R)-[1(R or S)-(hydroxycarbamoyl)-4-phenylbutyl]-4-methylvaleryl]-N^1,3-dimethyl-L-valinamide]", "IC50": 1.9}
    ]}
  ]
}
